The values that follow come from patent US9828385B2, “Spiro-oxazolones” (Hoffmann-La Roche Inc., priority 2014, dated 2017).

Structures are written as SMILES.

The target in this assay is T1, human V1a receptor (Homo sapiens, UniProt P37288).
T1 construct: expressed in transfected cells; host or cells: HEK293 cells, transiently transfected; cell membranes
T1 sequence (P37288 whole entry): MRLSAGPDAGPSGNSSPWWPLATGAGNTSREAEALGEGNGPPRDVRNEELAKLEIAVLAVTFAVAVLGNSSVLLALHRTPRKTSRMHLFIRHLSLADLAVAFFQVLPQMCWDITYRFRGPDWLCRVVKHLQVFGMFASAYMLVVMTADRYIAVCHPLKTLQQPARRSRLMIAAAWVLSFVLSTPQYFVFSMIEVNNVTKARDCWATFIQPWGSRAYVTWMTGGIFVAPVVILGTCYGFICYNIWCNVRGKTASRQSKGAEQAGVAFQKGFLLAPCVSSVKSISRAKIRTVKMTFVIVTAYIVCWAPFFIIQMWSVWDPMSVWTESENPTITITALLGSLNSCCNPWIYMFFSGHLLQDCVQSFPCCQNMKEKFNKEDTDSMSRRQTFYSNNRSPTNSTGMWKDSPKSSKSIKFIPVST
Briefly: human V1a receptor binding studies (3H-Vasopressin, SPA beads). The settings on record: membranes of HEK293 cells transiently transfected with human V1a receptor, Ki by Cheng-Prussoff from IC50, read-out: pKi hV1a (converted). The method, then:
The human V1a receptor was cloned by RT-PCR from total human liver RNA. The coding sequence was subcloned in an expression vector after sequencing to confirm the identity of the amplified sequence. […] Cell membranes were prepared from HEK293 cells transiently transfected with the expression vector and grown in 20 liter fermenters with the following protocol.
50 g of cells are re-suspended in 30 ml freshly prepared ice cold Lysis buffer (50 mM HEPES, 1 mM EDTA, 10 mM MgCl2 adjusted to pH=7.4+complete cocktail of protease inhibitor (Roche Diagnostics)). Homogenized with Polytron for 1 min and sonicated on ice for 2×2 minutes at 80% intensity (Vibracell sonicator). The preparation is centrifuged 20 min at 500 g at 4° C., the pellet is discarded and the supernatant centrifuged 1 hour at 43′000 g at 4° C. (19′000 rpm). The pellet is re-suspended in 12.5 ml Lysis buffer+12.5 ml Sucrose 20% and homogenized using a Polytron for 1-2 min. The protein concentration is determined by the Bradford method and aliquots are stored at −80° C. until use. For binding studies 60 mg Yttrium silicate SPA beads (Amersham) are mixed with an aliquot of membrane in binding buffer (50 mM Tris, 120 mM NaCl, 5 mM KCl, 2 mM CaCl2, 10 mM MgCl2) for 15 minutes with mixing. 50 μl of bead/membrane mixture is then added to each well of a 96 well plate, followed by 50 μl of 4 nM 3H-Vasopressin (American Radiolabeled Chemicals). For total binding measurement 100 μl of binding buffer are added to the respective wells, for non-specific binding 100 μl of […] cold vasopressin and for compound testing 100 μl of a serial dilution of each compound in 2% DMSO. The plate is incubated 1 h at room temperature, centrifuged 1 min at 1000 g and counted on a Packard Top-Count. Non-specific binding counts are subtracted from each well and data is normalized to the maximum specific binding set at 100%. To calculate an IC 50 the curve is fitted using a non-linear regression model (XLfit) and the Ki is calculated using the Cheng-Prussoff equation.
For `O=C1N=C(N2CCC3(CC2)OCc2ncccc23)OC1Cc1ccccc1` (stereo not drawn) [Example 28, 5-Benzyl-2-(1′H,7H-spiro[furo[3,4-b]pyridine-5,4′-piperidin]-1′-yl)-1,3-oxazol-4(5H)-one], the Ki is 0.0794 µM.

With `O=C1N=C(N2CCC3(CC2)OCc2ccccc23)OC12CC=C(C(F)(F)F)C2` (stereo not drawn) [Example 117, 2-(1′H,3H-Spiro[2-benzofuran-1,4′-piperidin]-1′-yl)-7-(trifluoromethyl)-1-oxa-3-azaspiro[4.4]nona-2,7-dien-4-one], the Ki was 0.00126 µM.

As for `O=C1N=C(N2CCC3(CC2)OCc2ccccc23)OC1C(O)c1ccc(Cl)cc1` (single isomer, unassigned; diastereomer a) [Example 43, (+)-5-[(4-Chlorophenyl)(hydroxy)methyl]-2-(1′H,3H-spiro[2-benzofuran-1,4′-piperidin]-1′-yl)-1,3-oxazol-4(5H)-one diastereomer a], the Ki is 0.0158 µM.

With `C#CCC1(CC=C)OC(N2CCC3(CC2)OCc2ccccc23)=NC1=O` (stereo not drawn) [Example 57, 5-(Prop-2-en-1-yl)-5-(prop-2-yn-1-yl)-2-(1′H,3H-spiro[2-benzofuran-1,4′-piperidin]-1′-yl)-1,3-oxazol-4(5H)-one], the Ki is 0.0398 µM.

On to `CC1(CC2CCOC2)OC(N2CCC3(CC2)OCc2ccccc23)=NC1=O` (single isomer, unassigned; diastereomer a) [Example 99, 5-Methyl-2-(1′H,3H-spiro[2-benzofuran-1,4′-piperidin]-1′-yl)-5-(tetrahydrofuran-3-ylmethyl)-1,3-oxazol-4(5H)-one diastereomer a], for which the Ki is 0.251 µM.

For `O=C1N=C(N2CCC3(CC2)OCc2ccccc23)OC12CCCCC2` [Example 123, 2-(1′H,3H-Spiro[2-benzofuran-1,4′-piperidin]-1′-yl)-1-oxa-3-azaspiro[4.5]dec-2-en-4-one], the Ki was 0.01 µM.

For the compound `O=C1N=C(N2CCC3(CC2)OCc2ccccc23)OC1(Cc1ccc(Cl)cc1)Cc1ccc(Cl)cc1` [Example 94, 5,5-bis(4-Chlorobenzyl)-2-(1′H,3H-spiro[2-benzofuran-1,4′-piperidin]-1′-yl)-1,3-oxazol-4(5H)-one], the Ki was 0.001 µM.

As to `CC(C)CC1OC(N2CCC3(CC2)OCc2ccccc23)=NC1=O` (stereo not drawn) [Example 7, 5-(2-Methylpropyl)-2-(1′H,3H-spiro[2-benzofuran-1,4′-piperidin]-1′-yl)-1,3-oxazol-4(5H)-one], the Ki was 0.02 µM.

On to `CC1(C(F)(F)c2ccc(C(F)F)cc2)OC(N2CCC3(CC2)OCc2ccccc23)=NC1=O` (stereo not drawn) [Example 89, 5-{[4-(Difluoromethyl)phenyl](difluoro)methyl}-5-methyl-2-(1′H,3H-spiro[2-benzofuran-1,4′-piperidin]-1′-yl)-1,3-oxazol-4(5H)-one], for which the Ki is 0.158 µM.

As to `O=C1OC2(CCN(C3=NC(=O)C(C(O)c4ccc(Cl)cc4)O3)CC2)c2ccccc21` (single isomer, unassigned) [Example 50, 1′-{-5-[(4-Chlorophenyl)(hydroxy)methyl]-4-oxo-4,5-dihydro-1,3-oxazol-2-yl}-3H-spiro[2-benzofuran-1,4′-piperidin]-3-one diastereomer a, enantiomer A], the Ki was 0.02 µM.

Take `CC(c1ccccc1)C1(C)OC(N2CCC3(CC2)OCc2ccccc23)=NC1=O` (single isomer, unassigned; diastereomer b) [Example 107, 5-Methyl-5-(1-phenylethyl)-2-(1′H,3H-spiro[2-benzofuran-1,4′-piperidin]-1′-yl)-1,3-oxazol-4(5H)-one diastereomer b]: the Ki is 0.01 µM.

For `CC(c1ccccc1)C1(C)OC(N2CCC3(CC2)OCc2ccccc23)=NC1=O` (single isomer, unassigned; diastereomer a) [Example 109, (−)-5-Methyl-5-(1-phenylethyl)-2-(1′H,3H-spiro[2-benzofuran-1,4′-piperidin]-1′-yl)-1,3-oxazol-4(5H)-one diastereomer a], the Ki was 0.0501 µM.

Take `O=C1OC2(CCN(C3=NC(=O)C4(CCC(F)(F)CC4)O3)CC2)c2ccccc21` [Example 131, 1′-(8,8-Difluoro-4-oxo-1-oxa-3-azaspiro[4.5]dec-2-en-2-yl)-3H-spiro[2-benzofuran-1,4′-piperidin]-3-one]: the Ki is 0.0501 µM.

Consider `O=C1OC2(CCN(C3=NC(=O)C4(CCCCC4)O3)CC2)c2ccccc21` [Example 124, 1′-(4-Oxo-1-oxa-3-azaspiro[4.5]dec-2-en-2-yl)-3H-spiro[2-benzofuran-1,4′-piperidin]-3-one], for which the Ki was 0.158 µM.

On to `C=CCC1(CC=C)OC(N2CCC3(CC2)OCc2ccccc23)=NC1=O` [Example 58, 5,5-Di(prop-2-en-1-yl)-2-(1′H,3H-spiro[2-benzofuran-1,4′-piperidin]-1′-yl)-1,3-oxazol-4(5H)-one], for which the Ki is 0.0501 µM.

For `CC1=C(C)CC2(C1)OC(N1CCC3(CC1)OCc1ccccc13)=NC2=O` [Example 115, 7,8-Dimethyl-2-(1′H,3H-spiro[2-benzofuran-1,4′-piperidin]-1′-yl)-1-oxa-3-azaspiro[4.4]nona-2,7-dien-4-one], the Ki was 0.01 µM.

`CCCCC1OC(N2CCC3(CC2)OCc2ccccc23)=NC1=O` (single isomer, unassigned; (+)) [Example 4, (+)-5-Butyl-2-(1′H,3H-spiro[2-benzofuran-1,4′-piperidin]-1′-yl)-1,3-oxazol-4(5H)-one]: the Ki was 0.00501 µM.

Take `O=C1OC2(CCN(C3=NC(=O)C(C(O)c4ccc(Cl)cc4)O3)CC2)c2ccccc21` (single isomer, unassigned) [Example 52, 1′-{-5-[(4-Chlorophenyl)(hydroxy)methyl]-4-oxo-4,5-dihydro-1,3-oxazol-2-yl}-3H-spiro[2-benzofuran-1,4′-piperidin]-3-one diastereomer b, enantiomer A]: the Ki is 0.631 µM.

Consider `O=C1N=C(N2CCC3(CC2)OCc2ccccc23)OC1C(F)c1ccc(Cl)cc1` (single isomer, unassigned) [Example 47, 5-((4-Chlorophenyl)fluoromethyl)-2-(1′H,3H-spiro[2-benzofuran-1,4′-piperidin]-1′-yl)-1,3-oxazol-4(5H)-one diastereomer a, enantiomer B], for which the Ki was 0.02 µM.

`O=C1N=C(N2CCC3(CC2)SCc2ccccc23)OC1Cc1ccccc1` (stereo not drawn) [Example 33, 5-Benzyl-2-(1′H,3H-spiro[2-benzothiophene-1,4′-piperidin]-1′-yl)-1,3-oxazol-4(5H)-one]: the Ki is 0.0126 µM.

As to `CC1(CC2CCOC2)OC(N2CCC3(CC2)OCc2ccccc23)=NC1=O` (single isomer, unassigned; diastereomer b) [Example 100, 5-Methyl-2-(1′H,3H-spiro[2-benzofuran-1,4′-piperidin]-1′-yl)-5-(tetrahydrofuran-3-ylmethyl)-1,3-oxazol-4(5H)-one diastereomer b], the Ki is 0.126 µM.

In the case of `O=C1N=C(N2CCC3(CC2)OCc2ccccc23)OC1C(O)c1ccc(Cl)cc1` (single isomer, unassigned; diastereomer a) [Example 42, (−)-5-[(4-Chlorophenyl)(hydroxy)methyl]-2-(1′H,3H-spiro[2-benzofuran-1,4′-piperidin]-1′-yl)-1,3-oxazol-4(5H)-one diastereomer a], the Ki is 0.00316 µM.

On to `CCCC1OC(N2CCC3(CC2)OCc2ccccc23)=NC1=O` (stereo not drawn) [Example 1, 5-Propyl-2-(1′H,3H-spiro[2-benzofuran-1,4′-piperidin]-1′-yl)-1,3-oxazol-4(5H)-one], for which the Ki is 0.0794 µM.

Regarding `CCCCCC1CCC2(CC1)OC(N1CCC3(CC1)OCc1ccccc13)=NC2=O` (single isomer, unassigned; diastereomer b) [Example 129, 8-Pentyl-2-(1′H,3H-spiro[2-benzofuran-1,4′-piperidin]-1′-yl)-1-oxa-3-azaspiro[4.5]dec-2-en-4-one diastereomer b], the Ki is 0.158 µM.

In the case of `C=C(CC1OC(N2CCC3(CC2)OCc2ccccc23)=NC1=O)C(F)(F)F` (stereo not drawn) [Example 10, 2-(1′H,3H-Spiro[2-benzofuran-1,4′-piperidin]-1′-yl)-5-[2-(trifluoromethyl)prop-2-en-1-yl]-1,3-oxazol-4(5H)-one], the Ki is 0.00398 µM.

For the compound `CC1(Cc2ccccc2)OC(N2CCC3(CC2)OC(=O)c2ccccc23)=NC1=O` (single isomer, unassigned; enantiomer a) [Example 72, 1′-[5-Benzyl-5-methyl-4-oxo-4,5-dihydro-1,3-oxazol-2-yl]-3H-spiro[2-benzofuran-1,4′-piperidin]-3-one enantiomer A], the Ki was 0.0251 µM.

Take `C#CCC1(CC(=C)C(=O)OCC)OC(N2CCC3(CC2)OCc2ccccc23)=NC1=O` (stereo not drawn) [Example 62, Ethyl 2-((4-oxo-5-(prop-2-ynyl)-2-(3H-spiro[isobenzofuran-1,4′-piperidine]-1′-yl)-4,5-dihydrooxazol-5-yl)methyl)acrylate]: the Ki was 0.631 µM.
